Measurements from article PMC3891837 (American journal of obstetrics and gynecology, 2013).
Where two headings read alike, the source gives them in different places.

Experiments:
[1] = set-up: species or system human
[2] = set-up: species or system human; remark: listed apart in the source
[3] = system: efflux transporters (P-gp, MRP, BCRP); format: biochemical; conditions: human, inside-out vesicles from placental brush border membranes, pH 7.4, probe [3H]-paclitaxel, 40 nM
[4] = system: efflux transporters (P-gp, MRP, BCRP); format: biochemical; conditions: human, inside-out vesicles from placental brush border membranes, pH 7.4, probe [3H]-estrone sulfate, 100 nM

Row | SMILES | normalized transfer (Clearance index) to antipyrine ([1]; Fetal-to-Maternal direction, p < 0.01 vs Maternal to Fetal) | concentration in the maternal circuit at the end of perfusion ([1]; F→M, 4 hours of perfusion, initial donor concentration 50 ng/mL) [ng/mL] | maternal/fetal concentration ratio ([1]; F→M, end of 4 hours of perfusion) | time to appearance in the maternal (recipient) circuit ([1]; F→M, initial donor concentration 50 ng/mL) | normalized transfer (Clearance index) to antipyrine ([2]; Maternal-to-Fetal direction) | concentration in the fetal circuit at the end of the experimental period ([2]; M→F, 4-hour perfusion, initial donor concentration 50 ng/mL) [ng/mL] | drug remained in the maternal circuit ([2]; M→F, end of 4-hour perfusion) [%] | drug retained by the tissue ([2]; M→F, end of 4-hour perfusion) [%] | drug transferred to the fetal circuit ([2]; M→F, end of 4-hour perfusion) [%] | fetal/maternal concentration ratio ([2]; M→F, end of 4-hour perfusion) | appearance in the fetal circuit after start of perfusion ([2]; M→F, initial donor concentration 50 ng/mL) | IC50 at 1 min [3] [µM] | IC50 at 3 min [4] [µM] | transplacental transfer of antipyrine ([2]; marker compound, 20 μg/mL, dual perfusion, 4 h)
1 | CC[C@H](C)C(=O)O[C@H]1C[C@H](O)C=C2C=C[C@H](C)[C@H](CC[C@@H](O)C[C@@H](O)CC(=O)O)[C@H]21 [Pravastatin, pravastatin] | 0.48 ± 0.07 | 6.4 ± 1.0 | 0.19 ± 0.03 | less than 5 minutes | 0.36 ± 0.07 | 8.8 ± 1.8 | 68 ± 5 | 14 ± 5 | 18 ± 4 | 0.26 ± 0.06 | within the initial five minutes | 11 | 30 | –
2 | Cc1cc(=O)n(-c2ccccc2)n1C [antipyrine] | – | – | – | – | – | – | – | – | – | – | – | – | – | approximately 50%
